Test results as given in US10722514B2 (FLX Bio, Inc., priority 2017, dated 2020).
Structures can show the parent of a compound that is named as a salt. Where two headings read alike, the source gives them in different places.

Target: T1, recombinant full-length USP7 (Homo sapiens, UniProt Q93009)
T1 construct: A 25 μl reaction volume containing recombinant full-length USP7 (62 pM)
Assay: USP7-mediated ubiquitin-rhodamine cleavage assay
Assay type: biochemical
Conditions: recombinant full-length USP7 62 pM, ubiquitin-rhodamine 100 nM, 1 hour reaction at room temperature
In short: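 IC50 values came from fluorescence measured after a 1 h room-temperature reaction of 62 pM enzyme with 100 nM ubiquitin-rhodamine, following 30 min compound preincubation; fits used four parameters.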

[1] = 30-minute incubation with compound, read-out: Potency: USP7 IC50
[2] = 30-minute pre-incubation, read-out: Potency (USP7 IC50)

T1 sequence (Q93009 whole entry): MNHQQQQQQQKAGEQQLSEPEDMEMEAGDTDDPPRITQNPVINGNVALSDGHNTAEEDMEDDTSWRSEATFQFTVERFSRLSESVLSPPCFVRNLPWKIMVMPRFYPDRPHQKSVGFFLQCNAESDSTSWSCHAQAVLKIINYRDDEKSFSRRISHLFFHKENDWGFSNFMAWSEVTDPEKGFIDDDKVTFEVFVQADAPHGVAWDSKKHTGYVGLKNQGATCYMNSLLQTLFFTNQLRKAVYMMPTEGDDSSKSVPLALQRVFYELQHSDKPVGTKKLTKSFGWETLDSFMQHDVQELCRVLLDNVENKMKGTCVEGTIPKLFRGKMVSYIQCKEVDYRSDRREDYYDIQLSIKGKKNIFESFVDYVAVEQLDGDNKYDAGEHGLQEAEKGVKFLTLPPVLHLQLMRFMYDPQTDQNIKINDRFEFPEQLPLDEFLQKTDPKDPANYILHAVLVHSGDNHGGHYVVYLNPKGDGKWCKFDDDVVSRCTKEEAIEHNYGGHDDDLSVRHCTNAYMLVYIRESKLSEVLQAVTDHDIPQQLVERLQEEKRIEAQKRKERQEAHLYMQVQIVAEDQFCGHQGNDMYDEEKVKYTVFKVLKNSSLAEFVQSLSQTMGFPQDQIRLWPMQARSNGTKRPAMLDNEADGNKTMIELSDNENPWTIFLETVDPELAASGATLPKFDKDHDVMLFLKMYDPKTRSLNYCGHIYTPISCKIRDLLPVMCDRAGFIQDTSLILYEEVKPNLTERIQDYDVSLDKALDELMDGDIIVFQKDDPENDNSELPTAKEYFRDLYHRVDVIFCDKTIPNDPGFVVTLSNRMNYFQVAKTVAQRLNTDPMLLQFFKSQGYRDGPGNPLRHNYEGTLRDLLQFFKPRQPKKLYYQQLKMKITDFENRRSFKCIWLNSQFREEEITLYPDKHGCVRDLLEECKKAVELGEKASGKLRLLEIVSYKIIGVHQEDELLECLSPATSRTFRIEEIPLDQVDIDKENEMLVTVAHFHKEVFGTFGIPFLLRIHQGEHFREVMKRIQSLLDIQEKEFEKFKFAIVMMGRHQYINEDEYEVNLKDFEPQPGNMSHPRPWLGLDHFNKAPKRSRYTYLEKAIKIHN

Compound	IC50 [1] [µM]	IC50 [2] [µM]
2-((4-(5-Chloro-3-methyl-2-(piperidin-4-yloxy)phenyl)thieno[3,2-d]pyrimidin-6-yl)methyl)tetrahydrocyclopenta[c]pyrrole-1,3(2H,3aH)-dione [Example 178]	< 1	
Cc1cc(C#N)cc(-c2ccnc3cc(COC4=NS(=O)(=O)CC4)sc23)c1O[C@@H]1CNC[C@@H]1F [Example 115, 3-(2-(((1,1-Dioxido-4,5-dihydroisothiazol-3-yl)oxy)methyl)thieno[3,2-b]pyridin-7-yl)-4-(((3R,4S)-4-fluoropyrrolidin-3-yl)oxy)-5-methylbenzonitrile]	1 to 10	
Cc1cc(Cl)cc(-c2ccnc3cc(Cn4c(=O)ccn(C)c4=O)sc23)c1O[C@@H]1CCN(CCO)C[C@@H]1C [Example 475, 3-[[7-[5-chloro-2-[[(3S,4R)-1-(2-hydroxyethyl)-3-methyl-4-piperidyl]oxy]-3-methyl-phenyl]thieno[3,2-b]pyridin-2-yl]methyl]-1-methyl-pyrimidine-2,4-dione]		< 1
Cc1cc(Cl)cc(-c2ccnc3cc(Cn4c(=O)ccn(CC(F)(F)F)c4=O)sc23)c1O[C@H]1CCC(C)(C)NC1 [Example 286, 3-[[7-[5-chloro-2-[[(3S)-6,6-dimethyl-3-piperidyl]oxy]-3-methyl-phenyl]thieno[3,2-b]pyridin-2-yl]methyl]-1-(2,2,2-trifluoroethyl)pyrimidine-2,4-dione; 2,2,2-trifluoroacetic acid]	< 1	
Cc1cc(Cl)cc(-c2ccnc3cc(CN4C(=O)C5C(C4=O)C5(C)C)sc23)c1O[C@@H]1CNC[C@@H]1C(F)F (stereo partly drawn) [Example 389, 3-[[7-[5-chloro-2-[(3S,4S)-4-(difluoromethyl)pyrrolidin-3-yl]oxy-3-methyl-phenyl]thieno[3,2-b]pyridin-2-yl]methyl]-6,6-dimethyl-3-azabicyclo[3.1.0]hexane-2,4-dione dihydrochloride]	< 1	
Cc1cc(Cl)cc(-c2ccnc3cc(CN4C(=O)C5CC5C4=O)sc23)c1O[C@H]1CC[C@H](C)NC1 (stereo partly drawn) [Example 305, 3-[[7-[5-chloro-3-methyl-2-[[(3S,6S)-6-methyl-3-piperidyl]oxy]phenyl]thieno[3,2-b]pyridin-2-yl]methyl]-3-azabicyclo[3.1.0]hexane-2,4-dione; 2,2,2-trifluoroacetic acid]	< 1	
COc1ccc(C(=O)O)cc1-c1ccnc2cc(Cn3c(=O)ccn(CC(F)(F)F)c3=O)sc12 [Example 290, 3-[2-[[2,6-dioxo-3-(2,2,2-trifluoroethyl)pyrimidin-1-yl]methyl]thieno[3,2-b]pyridin-7-yl]-4-methoxy-benzoic acid]	1 to 10	
Cc1cc(Cl)cc(-c2ccnc3cc(CN4C(=O)CCC4=O)sc23)c1O[C@H]1C[C@H]2CC[C@@H](C1)N2 [Example 214, 1-((7-(2-(((1R,3r,5S)-8-Azabicyclo[3.2.1]octan-3-yl)oxy)-5-chloro-3-methylphenyl)thieno[3,2-b]pyridin-2-yl)methyl)pyrrolidine-2,5-dione]	< 1	

Further lines, results first:

IC50 [1] [µM]	IC50 [2] [µM]	Compound
< 1		Cc1cc(Cl)cc(-c2ccnc3cc(CN4C(=O)CCC4=O)sc23)c1OCC1(C#N)CNC1 [Example 12, 3-((4-Chloro-2-(2-((2,5-dioxopyrrolidin-1-yl)methyl)thieno[3,2-b]pyridin-7-yl)-6-methylphenoxy)methyl)azetidine-3-carbonitrile]
< 1		Cc1cc(Cl)cc(-c2ncnc3cc(CN4C(=O)C5CC5C4=O)sc23)c1O[C@@H]1CCNC[C@H]1F (stereo partly drawn) [Example 309, 3-[[4-[5-chloro-2-[[(3R,4R)-3-fluoro-4-piperidyl]oxy]-3-methyl-phenyl]thieno[3,2-d]pyrimidin-6-yl]methyl]-3-azabicyclo[3.1.0]hexane-2,4-dione dihydrochloride]
	< 1	Cc1cc(C(F)(F)F)cc(-c2ccnc3cc(Cn4c(=O)c(F)cn(C)c4=O)sc23)c1O[C@H]1CCCNC1 [Example 460, 5-fluoro-1-methyl-3-[[7-[3-methyl-2-[[(3S)-3-piperidyl]oxy]-5-(trifluoromethyl)phenyl]thieno[3,2-b]pyridin-2-yl]methyl]pyrimidine-2,4-dione]
< 1		C[C@H]1CNCC[C@H]1Oc1ccccc1-c1ccnc2cc(Cn3c(=O)ccn(CC(F)(F)F)c3=O)sc12 [Example 292, 3-[[7-[2-[[(3S,4R)-3-methyl-4-piperidyl]oxy]phenyl]thieno[3,2-b]pyridin-2-yl]methyl]-1-(2,2,2-trifluoroethyl)pyrimidine-2,4-dione]
	< 1	Cc1cc(Cl)cc(-c2ccnc3cc(Cn4c(=O)ccn(C)c4=O)sc23)c1OC1CN2CCC1C2 [Example 530, 3-[[7-[2-[[(1R,3S,4S)-1-azabicyclo[2.2.1]heptan-3-yl]oxy]-5-chloro-3-methyl-phenyl]thieno[3,2-b]pyridin-2-yl]methyl]-1-methyl-pyrimidine-2,4-dione]
< 1		Cc1cc(Cl)cc(-c2ncnc3cc(CN4C(=O)C5C(C4=O)C5(C)C)sc23)c1OC1CNCC1(C)F (centres unmarked) [Example 386, 3-[[4-[5-chloro-2-(4-fluoro-4-methyl-pyrrolidin-3-yl)oxy-3-methyl-phenyl]thieno[3,2-d]pyrimidin-6-yl]methyl]-6,6-dimethyl-3-azabicyclo[3.1.0]hexane-2,4-dione dihydrochloride]
< 1		Cc1cc(Cl)cc(-c2ccnc3cc(Cn4c(=O)ccn(CC(F)(F)F)c4=O)sc23)c1O[C@@H]1CNCC[C@H]1C [Example 342, 3-[[7-[5-chloro-3-methyl-2-[[(3S,4R)-4-methyl-3-piperidyl]oxy]phenyl]thieno[3,2-b]pyridin-2-yl]methyl]-1-(2,2,2-trifluoroethyl)pyrimidine-2,4-dione]
1 to 10		Cc1cc(Cl)cc(-c2ccnc3cc(CO)sc23)c1OC1CC2CNC1C2 (centres unmarked) [Example 165, (7-(2-((2-Azabicyclo[2.2.1]heptan-6-yl)oxy)-5-chloro-3-methylphenyl)thieno[3,2-b]pyridin-2-yl)methanol]
< 1		Cc1cc(Cl)cc(-c2ccnc3c(F)c(CN4C(=O)CCC4=O)sc23)c1O[C@@H]1CNC[C@@H]1F [Example 65, 1-((7-(5-Chloro-2-(((3R,4S)-4-fluoropyrrolidin-3-yl)oxy)-3-methylphenyl)-3-fluorothieno[3,2-b]pyridin-2-yl)methyl)pyrrolidine-2,5-dione]
